In US12667566B2, “Combination therapy of GPR119 agonists and DPP-4 inhibitors” (MANKIND PHARMA LTD., priority 2019, dated 2026):

Experiments:
active GLP-1 = experiment: Active GLP-1 estimation; format: in vivo; conditions: male Sprague Dawley rats, oral
Description: FIG. 2. Effect of GPR119 agonist Formula 1A on active GLP-1 levels in male Sprague Dawley rats. Formula 1A was administered to the rats and GLP-1 levels were estimated at different time points (0, 5, 15, 30 & 60 min) and compared to vehicle group. Data was analysed by One-Way ANOVA followed by Dunnett's Multiple Comparison Test. *P<0.05, **P<0.01, ***P<0.001 vs vehicle control. Vehicle used was 0.5% Tween 80 and 99.5% NaCMC in water (0.5% w/v).
GLP-1 estimation is conducted in male Sprague dawley rats. Animals of 8-10 weeks old were kept for overnight fasting (only water was provided ad libitum). […] were randomized based on basal glucose values into four different groups. Vehicle (0.5% Tween 80 and 99.5% NaCMC in water (0.5% w/v) was administered to control animals and remaining groups were administered with test compound prepared in vehicle at respective doses orally.
For active GLP-1 estimation, blood was collected by retro orbital puncture under isoflurane anesthesia. Active GLP-1 levels were estimated from the collected plasma at −30, 0, 5, 15, 30 & 60 min time points. Blood collection (Approximately 400-500 μl) was done by retro orbital puncture under isoflurane anesthesia with the help of DPP-4 inhibitor (#DPP4-010, Merck-Millipore) rinsed capillaries and collected into pre-coated Eppendorf (10 μl/ml of blood) with DPP-4 inhibitor.

blood glucose = experiment: Oral glucose tolerance test (OGTT); format: in vivo; conditions: male Sprague Dawley rats, glucose load 2 g/kg
Description: FIG. 1. Oral glucose tolerance test (OGTT) of GPR119 agonist Formula 1A in male Sprague Dawley rats. Formula 1A was administered to the rats and blood glucose was monitored post 30 min of dose administration (0-time point). After glucose administration (2 g/kg/10 ml), glucose levels were estimated at different time points (5, 15, 30, 60 & 120 min) and compared to vehicle group. Data was analysed by One-Way ANOVA followed by Dunnett's Multiple Comparison Test. *P<0.05, **P<0.01 & ***P<0.001 vs vehicle control. Vehicle used was 0.5% Tween 80 and 99.5% NaCMC in water (0.5% w/v).
OGTT study is conducted in male Sprague dawley rats. […] Vehicle (0.5% Tween 80 and 99.5% NaCMC in water (0.5% w/v) was administered to control animals and remaining groups were administered with test compound prepared in vehicle at respective doses orally. Blood samples were collected immediately after test compound administration (which was −30 min time point). Blood glucose was monitored post 30 min of dose administration (which was a zero min time point). All animals received 2 g/kg/10 ml (20%) of Glucose solution orally. After glucose administration, glucose levels were estimated at different time points (5, 15, 30, 60 & 120 min). Estimation of blood glucose level was done by strip method. […] Blood glucose AUC was calculated from the samples collected at respective time points. […]

Row | Structure (SMILES) | increase in active GLP-1 secretion compared to vehicle (active GLP-1; 10 mg/kg/wt) [%] | glucose reduction compared to vehicle (blood glucose; 10 mg/kg) [%] | increase in active GLP-1 secretion compared to vehicle (active GLP-1; 3 mg/kg/wt) [%] | glucose reduction compared to vehicle (blood glucose; 3 mg/kg) [%]
1 | CCc1cnc(N2CCC([C@H](C)Oc3nn4cc(-c5ccc(S(C)(=O)=O)cc5F)nc4s3)CC2)nc1 [Formula IA] | 123 | 16 | – | –
2 | N[C@@H](CC(=O)N1CCn2c(nnc2C(F)(F)F)C1)Cc1cc(F)c(F)cc1F [sitagliptin, (3R)-3-amino-1-[3-(trifluoromethyl)-5,6,7,8-tetrahydro-5H-[1,2,4]triazolo-[4,3-a]pyrazin-7-yl]-4-(2,4,5-trifluorophenyl) butan-1-one] | – | – | 253 | 15
